Reference: patent US11666577B2 (National Institute of Biological Sciences, Beijing, priority 2018, dated 2023)

These molecules were tested on HT-29 cells (assay: Necroptosis assay (TNF-α/Smac mimetic/z-VAD, TSZ-induced) in HT-29 cells). Conditions: Homo sapiens; Series 1 (Table 1) compounds 1-146; HT-29 cells, TNF-α/Smac mimetic/z-VAD, 24 hrs, cell viability by ATP level; read-out: Series 1 compound necroptosis activity.
Format: cell-based, human
Protocol: Methods: HT-29 cells were cultured in McCoy's 5 A culture medium (Invitrogen). On day one, HT-29 cells were plated in 96-well assay plates at density of 2,500-3,500 cells per well. On day two, necrosis were induced by adding 20 ng/ml TNF-α (T), 100 nM Smac mimetic (S), and […] z-VAD (Z). At the same time, 10 mM compound from a chemical library of ˜200,000 compounds was delivered into each well. After 24 hrs treatment, cell viability was determined by measuring ATP level using the Cell Titer-Glo Luminescent Cell Viability Assay kit. A CellTiter-Glo Assay (Promega) was performed according to the manufacturer's instructions. Luminescence was recorded with a PerkinElmer EnSpire Multimode Plate Reader. Survived cells were normalized to those cells treated with DMSO. RIPA-56 was used as a positive control for screening necroptosis inhibitors. Data are represented as mean±standard deviation of duplicates.
In previous work, we performed a cell-based high-throughput screen to identify necroptosis inhibitors using a chemical library of ˜200,000 compounds and identified multiple compounds that protected human colorectal adenocarcinoma (HT-29) cells from TNF-α/Smac mimetic/Z-VAD-fmk (TSZ)-induced necroptosis.^[4]
The anti-necroptosis potency of compounds 7-12 and 14-18 was evaluated in the HT-29 cell line; the EC50 values are shown in Table B.
[a] Necroptosis was induced in HT-29 cells for 24 h; the EC50 values given here are the mean values of at least three independent analyses.

Structure (SMILES) | EC50
Cn1c(=O)c2c(nc(S(=O)(=O)Cc3cc(Cl)ccc3Cl)n2C)n(C)c1=O [Compound 55, 8-(2,5-dichlorobenzylsulfonyl)-1,3,7-trimethyl-1H-purine-2,6(3H,7H)-dione] | 1 to 100 µM
Cn1c(=O)c2c(nc(S(=O)(=O)Cc3cc(Cl)cc(Cl)c3)n2C)n(C)c1=O [Compound 56, 8-(3,5-dichlorobenzylsulfonyl)-1,3,7-trimethyl-1H-purine-2,6(3H,7H)-dione] | 1 to 100 µM
COc1ccc(OC)c(CS(=O)(=O)c2nc3c(c(=O)n(C)c(=O)n3C)n2C)c1 [Compound 58, 8-(2,5-dimethoxybenzylsulfonyl)-1,3,7-trimethyl-1H-purine-2,6(3H,7H)-dione] | 1 to 10 µM

Same assay, conditions: Homo sapiens; Series 2 (Table 2) compounds; HT-29 necroptosis assay; read-out: Series 2 compound necroptosis activity

Structure (SMILES) | EC50
Cn1c(=O)c2c(nc(S(=O)(=O)CC3CC3)n2C)n(CC#Cc2ccnc(NCC3CC3)c2)c1=O [Compound 34] | 0.001 to 0.1 µM
CC(C)Nc1cc(C#CCn2c(=O)n(C)c(=O)c3c2nc(S(=O)(=O)CC2CC2)n3C)ccn1 [Compound 35] | 0.001 to 0.1 µM
Cn1c(=O)c2c(nc(S(C)(=O)=O)n2C)n(CC#Cc2cc(NC(=O)CN3CCOCC3)cc(NC(=O)C3CC3)c2)c1=O [Compound 36] | 0.001 to 0.1 µM
Cn1c(=O)c2c(nc(S(C)(=O)=O)n2C)n(CC#Cc2cc(NCC3CC3)cc(NCC3CC3)c2)c1=O [Compound 37] | 0.001 to 0.1 µM
COCC(=O)Nc1cc(C#CCn2c(=O)n(C)c(=O)c3c2nc(S(C)(=O)=O)n3C)cc(NC(=O)C2CC2)c1 [Compound 38] | 0.001 to 0.1 µM
Cn1c(=O)c2c(nc(S(C)(=O)=O)n2C)n(CC#Cc2cc(N)cc(NC(=O)C3CC3)c2)c1=O [Compound 40] | 0.001 to 0.1 µM
CN(C)CCOc1cc(C#CCn2c(=O)n(C)c(=O)c3c2nc(S(C)(=O)=O)n3C)cc(NC(=O)C2CC2)c1 [Compound 42] | 0.001 to 0.1 µM
Cn1c(=O)c2c(nc(S(C)(=O)=O)n2C)n(CC#Cc2cc(NC(=O)C3CC3)nc(C(F)(F)F)c2)c1=O [Compound 43] | 0.001 to 0.1 µM
Cn1c(=O)c2c(nc(S(C)(=O)=O)n2C)n(CC#Cc2cc(NC(=O)C3CC3)cc(C(F)(F)F)c2)c1=O [Compound 44] | 0.001 to 0.1 µM
Cn1c(=O)c2c(nc(S(=O)(=O)CC3CC3)n2C)n(CC#Cc2cc(NC(=O)C3CC3)nc(C(F)(F)F)c2)c1=O [Compound 45] | 0.001 to 0.1 µM
Cn1c(=O)c2c(nc(S(=O)(=O)CC3CC3)n2C)n(CC#Cc2cc(NC(=O)C3CC3)cc(C(F)(F)F)c2)c1=O [Compound 46] | 0.1 to 10 µM
Cn1c(=O)c2c(nc([S+](C)[O-])n2C)n(CC#Cc2cc(NC(=O)C3CC3)nc(C(F)(F)F)c2)c1=O (stereo not shown) [Compound 48] | 0.1 to 10 µM
Cn1c(=O)c2c(nc([S+](C)[O-])n2C)n(CC#Cc2cc(NC(=O)C3CC3)cc(C(F)(F)F)c2)c1=O (stereo not shown) [Compound 49] | > 10 µM
CCS(=O)(=O)c1nc2c(c(=O)n(C)c(=O)n2CC#Cc2cc(NC(=O)C3CC3)cc(NC(=O)C3CC3)c2)n1C [Compound 50] | 0.001 to 0.1 µM
COCCOc1cc(C#CCn2c(=O)n(C)c(=O)c3c2nc([S+](C)[O-])n3C)cc(NC(=O)C2CC2)c1 (stereo not shown) [Compound 54] | 0.001 to 0.1 µM
Cn1c(=O)c2c(nc(S(=O)(=O)NCc3ccccc3)n2C)n(C)c1=O [Compound 55] | 10 to 100 µM
CCCNS(=O)(=O)c1nc2c(c(=O)n(C)c(=O)n2C)n1C [Compound 58] | 10 to 100 µM

Same assay, conditions: Series 1 (Table 1) compounds 1-146; HT-29 cells, TNF-α/Smac mimetic/z-VAD, 24 hrs, cell viability by ATP level; read-out: Series 1 compound necroptosis activity

Structure (SMILES) | EC50
COc1ccccc1CS(=O)(=O)c1nc2c(c(=O)n(C)c(=O)n2C)n1C [Compound 35, 8-(2-methoxybenzylsulfonyl)-1,3,7-trimethyl-1H-purine-2,6(3H,7H)-dione] | 1 to 1000 µM
COc1cccc(CS(=O)(=O)c2nc3c(c(=O)n(C)c(=O)n3C)n2C)c1 [Compound 36, 8-(3-methoxybenzylsulfonyl)-1,3,7-trimethyl-1H-purine-2,6(3H,7H)-dione] | 1 to 1000 µM
COc1ccc(CS(=O)(=O)c2nc3c(c(=O)n(C)c(=O)n3C)n2C)cc1 [Compound 37, 8-(4-methoxybenzylsulfonyl)-1,3,7-trimethyl-1H-purine-2,6(3H,7H)-dione] | 1 to 1000 µM
Cn1c(=O)c2c(nc(S(=O)(=O)Cc3ccccc3[N+](=O)[O-])n2C)n(C)c1=O [Compound 38, 1,3,7-trimethyl-8-(2-nitrobenzylsulfonyl)-1H-purine-2,6(3H,7H)-dione] | 1 to 1000 µM
Cn1c(=O)c2c(nc(S(=O)(=O)Cc3cccc(C4(C(F)(F)F)N=N4)c3)n2C)n(C)c1=O [Compound 40, 1,3,7-trimethyl-8-(3-(3-(trifluoromethyl)-3H-diazirin-3-yl)benzylsulfonyl)-1H-purine-2,6(3H,7H)-dione] | 1 to 1000 µM
Cn1c(=O)c2c(nc(S(=O)(=O)Cc3ccc(C4(C(F)(F)F)N=N4)cc3)n2C)n(C)c1=O [Compound 41, 1,3,7-trimethyl-8-(4-(3-(trifluoromethyl)-3H-diazirin-3-yl)benzylsulfonyl)-1H-purine-2,6(3H,7H)-dione] | 1 to 1000 µM
Cn1c(=O)c2c(nc(S(=O)(=O)Cc3ccccc3C#N)n2C)n(C)c1=O [Compound 42, 2-((1,3,7-trimethyl-2,6-dioxo-2,3,6,7-tetrahydro-1H-purin-8-ylsulfonyl)methyl)benzonitrile] | 1 to 1000 µM
Cn1c(=O)c2c(nc(S(=O)(=O)Cc3cccc(C#N)c3)n2C)n(C)c1=O [Compound 43, 3-((1,3,7-trimethyl-2,6-dioxo-2,3,6,7-tetrahydro-1H-purin-8-ylsulfonyl)methyl)benzonitrile] | 1 to 1000 µM
Cn1c(=O)c2c(nc(S(=O)(=O)Cc3ccc(C#N)cc3)n2C)n(C)c1=O [Compound 44, 4-((1,3,7-trimethyl-2,6-dioxo-2,3,6,7-tetrahydro-1H-purin-8-ylsulfonyl)methyl)benzonitrile] | 1 to 1000 µM
Cn1c(=O)c2c(nc(S(=O)(=O)Cc3ccccc3C(N)=O)n2C)n(C)c1=O [Compound 45, 2-((1,3,7-trimethyl-2,6-dioxo-2,3,6,7-tetrahydro-1H-purin-8-ylsulfonyl)methyl)benzamide] | 1 to 1000 µM
Cn1c(=O)c2c(nc(S(=O)(=O)Cc3cccc(C(N)=O)c3)n2C)n(C)c1=O [Compound 46, 3-((1,3,7-trimethyl-2,6-dioxo-2,3,6,7-tetrahydro-1H-purin-8-ylsulfonyl)methyl)benzamide] | 1 to 1000 µM
Cn1c(=O)c2c(nc(S(=O)(=O)Cc3ccc(C(N)=O)cc3)n2C)n(C)c1=O [Compound 47, 4-((1,3,7-trimethyl-2,6-dioxo-2,3,6,7-tetrahydro-1H-purin-8-ylsulfonyl)methyl)benzamide] | 1 to 1000 µM
Cn1c(=O)c2c(nc(S(=O)(=O)Cc3ccccn3)n2C)n(C)c1=O [Compound 48, 1,3,7-trimethyl-8-(pyridin-2-ylmethylsulfonyl)-1H-purine-2,6(3H,7H)-dione] | 1 to 1000 µM
Cn1c(=O)c2c(nc(S(=O)(=O)Cc3cccc[n+]3[O-])n2C)n(C)c1=O [Compound 49, 2-((1,3,7-trimethyl-2,6-dioxo-2,3,6,7-tetrahydro-1H-purin-8-ylsulfonyl)methyl)pyridine 1-oxide] | 1 to 1000 µM
Cn1c(=O)c2c(nc(S(=O)(=O)Cc3cccnc3)n2C)n(C)c1=O [Compound 50, 1,3,7-trimethyl-8-(pyridin-3-ylmethylsulfonyl)-1H-purine-2,6(3H,7H)-dione] | 1 to 1000 µM
Cn1c(=O)c2c(nc(S(=O)(=O)Cc3ccc[n+]([O-])c3)n2C)n(C)c1=O [Compound 51, 3-((1,3,7-trimethyl-2,6-dioxo-2,3,6,7-tetrahydro-1H-purin-8-ylsulfonyl)methyl)pyridine 1-oxide] | 1 to 1000 µM
Cn1c(=O)c2c(nc(S(=O)(=O)Cc3cc[n+]([O-])cc3)n2C)n(C)c1=O [Compound 53, 4-((1,3,7-trimethyl-2,6-dioxo-2,3,6,7-tetrahydro-1H-purin-8-ylsulfonyl)methyl)pyridine 1-oxide] | 1 to 1000 µM
Cn1c(=O)c2c(nc(S(=O)(=O)Cc3cccc(Cl)c3Cl)n2C)n(C)c1=O [Compound 54, 8-(2,3-dichlorobenzylsulfonyl)-1,3,7-trimethyl-1H-purine-2,6(3H,7H)-dione] | 1 to 1000 µM
Cn1c(=O)c2c(nc(S(=O)(=O)Cc3c(Cl)cccc3Cl)n2C)n(C)c1=O [Compound 57, 8-(2,6-dichlorobenzylsulfonyl)-1,3,7-trimethyl-1H-purine-2,6(3H,7H)-dione] | 1 to 1000 µM
COc1cccc(CS(=O)(=O)c2nc3c(c(=O)n(C)c(=O)n3C)n2C)c1OC [Compound 61, 8-(2,3-dimethoxybenzylsulfonyl)-1,3,7-trimethyl-1H-purine-2,6(3H,7H)-dione] | 1 to 1000 µM
COc1cccc(OC)c1CS(=O)(=O)c1nc2c(c(=O)n(C)c(=O)n2C)n1C [Compound 62, 8-(2,6-dimethoxybenzylsulfonyl)-1,3,7-trimethyl-1H-purine-2,6(3H,7H)-dione] | 1 to 1000 µM
COc1c(Cl)cccc1CS(=O)(=O)c1nc2c(c(=O)n(C)c(=O)n2C)n1C [Compound 63, 8-(3-chloro-2-methoxybenzylsulfonyl)-1,3,7-trimethyl-1H-purine-2,6(3H,7H)-dione] | 1 to 1000 µM

Same assay, conditions: read-out: Series 1 compound necroptosis activity

Structure (SMILES) | EC50
COc1cc(CS(=O)(=O)c2nc3c(c(=O)n(C)c(=O)n3C)n2C)cc(OC)c1 [Compound 59, 8-(3,5-dimethoxybenzylsulfonyl)-1,3,7-trimethyl-1H-purine-2,6(3H,7H)-dione] | 1 to 1000 µM
